In the NIST ThermoML archive (doi:10.1021/je050305z):

Conditions: Gas, Hot wire method

COC [dimethyl ether]
Conditions | thermal conductivity [W/m/K]
266.62 K, 148.1 kPa | 0.01348
267.77 K, 148.1 kPa | 0.01359
268.94 K, 148.1 kPa | 0.01363
276.2 K, 155.8 kPa | 0.01468
276.2 K, 207.5 kPa | 0.01475
277.09 K, 207.5 kPa | 0.01483
277.12 K, 155.8 kPa | 0.01476
278.14 K, 155.8 kPa | 0.01482
278.17 K, 207.5 kPa | 0.01489
285.91 K, 253.2 kPa | 0.01594
286.05 K, 144.6 kPa | 0.01592
286.67 K, 253.2 kPa | 0.016
286.89 K, 144.6 kPa | 0.01605
287.68 K, 253.2 kPa | 0.01614
287.99 K, 144.6 kPa | 0.01606
295.96 K, 253.2 kPa | 0.01725
296.02 K, 352.9 kPa | 0.01726
296.03 K, 154.5 kPa | 0.01715
296.69 K, 352.9 kPa | 0.01736
296.76 K, 253.2 kPa | 0.01733
296.8 K, 154.5 kPa | 0.01728
297.39 K, 352.9 kPa | 0.0174
297.64 K, 253.2 kPa | 0.01739
297.76 K, 154.5 kPa | 0.01734
305.64 K, 155.2 kPa | 0.01827
305.64 K, 502.4 kPa | 0.01848
305.8 K, 352.8 kPa | 0.01842
306.69 K, 155.2 kPa | 0.01839
306.69 K, 502.4 kPa | 0.01861
306.8 K, 352.8 kPa | 0.01854
307.53 K, 155.2 kPa | 0.01852
307.53 K, 502.4 kPa | 0.01872
307.82 K, 352.8 kPa | 0.01861
315.68 K, 496.3 kPa | 0.01958
315.77 K, 348.9 kPa | 0.01952
316.05 K, 153.9 kPa | 0.01955
316.35 K, 700.4 kPa | 0.02006
316.55 K, 496.3 kPa | 0.01971
316.56 K, 700.4 kPa | 0.01992
316.75 K, 348.9 kPa | 0.01967
317.06 K, 153.9 kPa | 0.01957
317.2 K, 700.4 kPa | 0.01999
317.63 K, 496.3 kPa | 0.01983
317.81 K, 348.9 kPa | 0.01977
318.26 K, 153.9 kPa | 0.01971
325.16 K, 1120.2 kPa | 0.02135
325.31 K, 883.7 kPa | 0.02119
325.41 K, 701.6 kPa | 0.02104
325.53 K, 500.8 kPa | 0.02091
325.64 K, 348 kPa | 0.0208
325.83 K, 151.5 kPa | 0.02082
325.88 K, 1120.2 kPa | 0.02135
326.11 K, 883.7 kPa | 0.02133
326.2 K, 701.6 kPa | 0.02113
326.36 K, 500.8 kPa | 0.021
326.53 K, 348 kPa | 0.02093
326.73 K, 1120.2 kPa | 0.02156
326.79 K, 151.5 kPa | 0.02087
326.99 K, 883.7 kPa | 0.02145
327.16 K, 701.6 kPa | 0.02125
327.38 K, 500.8 kPa | 0.02116
327.53 K, 348 kPa | 0.02098
327.88 K, 151.5 kPa | 0.02094
335.18 K, 1196.9 kPa | 0.02256
335.35 K, 898.7 kPa | 0.02238
335.43 K, 705.2 kPa | 0.02212
335.48 K, 353.4 kPa | 0.02197
335.54 K, 505.2 kPa | 0.02204
335.66 K, 152.2 kPa | 0.02198
335.88 K, 1196.9 kPa | 0.02272
336.11 K, 898.7 kPa | 0.02244
336.23 K, 705.2 kPa | 0.02226
336.32 K, 353.4 kPa | 0.02209
336.37 K, 505.2 kPa | 0.02217
336.45 K, 1196.9 kPa | 0.0228
336.55 K, 152.2 kPa | 0.02211
336.74 K, 898.7 kPa | 0.0225
336.91 K, 705.2 kPa | 0.02231
337.06 K, 505.2 kPa | 0.02229
337.25 K, 353.4 kPa | 0.02223
337.54 K, 152.2 kPa | 0.02207
345.11 K, 1503.9 kPa | 0.02418
345.23 K, 1200.4 kPa | 0.0239
345.35 K, 897.3 kPa | 0.02352
345.47 K, 700 kPa | 0.02344
345.57 K, 502.5 kPa | 0.02341
345.59 K, 1503.9 kPa | 0.02427
345.67 K, 352.7 kPa | 0.02338
345.74 K, 1200.4 kPa | 0.02399
345.88 K, 154.3 kPa | 0.02322
345.9 K, 897.3 kPa | 0.02363
346.03 K, 700 kPa | 0.0235
346.12 K, 1503.9 kPa | 0.0244
346.15 K, 502.5 kPa | 0.02351
346.26 K, 352.7 kPa | 0.0234
346.29 K, 1200.4 kPa | 0.02408
346.49 K, 897.3 kPa | 0.02372
346.52 K, 154.3 kPa | 0.02324
346.64 K, 700 kPa | 0.02364
346.82 K, 502.5 kPa | 0.02361
346.93 K, 352.7 kPa | 0.0235
347.27 K, 154.3 kPa | 0.02327
354.82 K, 2226 kPa | 0.02637
355.11 K, 1777.8 kPa | 0.02567
355.2 K, 1497.3 kPa | 0.02536
355.22 K, 2226 kPa | 0.02653
355.33 K, 1194.9 kPa | 0.02506
355.47 K, 872.5 kPa | 0.02483
355.55 K, 701.6 kPa | 0.02472
